One series deals with Fischer rats. As to the kind of experiment: Oral toxicity in Fischer rats, 3 consecutive days. The following applies: Fischer rats (2 animals per sex), orally, 1,000 mg/kg for 3 consecutive days. The series is classed as in vivo.
The next series concerns KK mice. As to the kind of experiment: Hypoglycemic activity (blood glucose decrease in KK mice, glucose oxidase method). The series is classed as in vivo. The following applies: percent decrease of blood glucose from the level prior to administration; dosage level of 100 mg; per os daily for 4 consecutive days, blood glucose on day 5; male KK mice on high caloric diet. The protocol: Male KK mice, 4-5 weeks old, were obtained from Japan Clea. The animals were individually put on a high caloric diet (CMF, Oriental Yeast) and the individuals weighing about 40 g were selectively used.
For determination of blood glucose, 10 µl of blood was withdrawn from the caudal vein, deproteinized with 100 µl of 0.33 N perchloric acid and centrifuged. The glucose in the supernatant was assayed by the glucose oxidase method. Groups of 6 animals showing 200 mg/dℓ or more of blood glucose were submitted to the experiment.
The test compound was suspended in 0.5% methylcellulose and administered daily per os for 4 consecutive days. Before administration and on day 5, the blood was withdrawn from the caudal vein of each animal and the blood glucose was determined by the above method.
Hypoglycemic potency was expressed in terms of percent decrease from the glucose level prior to administration of the test compound and the results were statistically evaluated at the significance level of p=0.05. * = p<0.05 ** = p<0.01 *** = p<0.001 As a result, a significant hypoglycemic effect was attained within the dose range of 10 to 300 mg/kg.

The values below come from patent EP0533933A1, “BISHETEROCYCLIC COMPOUND” (YAMANOUCHI PHARMACEUTICAL CO. LTD., priority 1990, dated 1992).

`O=C1NC(=O)C(Cc2ccc(Cc3ccc(CC4SC(=O)NC4=O)cc3)cc2)S1` (stereo not shown) [Example 15, 4,4'-bis[(2,4-dioxo-5-thiazolidinyl)methyl]diphenylmethane]: in the series with Fischer rats, the “abnormality after oral administration” value is “no abnormality was observed”. In addition, the % Inhibition – broadly, how much of the control response was suppressed – in the series with KK mice is on record as 47%.
Consider `O=C1NC(=O)C(Cc2ccc(OCCCCCCCOc3ccc(CC4SC(=O)NC4=O)cc3)cc2)S1` (stereo not shown) [Example 14, 1,7-bis[4-[(2,4-dioxo-5-thiazolidinyl)methyl]phenoxy]heptane], for which the “% Inhibition” value with KK mice is reported as 37%.
For the compound `O=C1NC(=O)C(Cc2ccc(OC/C=C/COc3ccc(CC4SC(=O)NC4=O)cc3)cc2)S1` (stereo not drawn) [Example 16, trans-1,4-bis[p-[(2,4-dioxo-5-thiazolidinyl)methyl]phenoxy]-2-butene], in the series on KK mice, the “% Inhibition” value stood at 51%.
